The supplement of paper PMC12592484

How the values were obtained:
Assay in all cases: drug sensitivity score (DSS2, normalised partial AUC of dose-response, 72 h CellTiter-Glo viability) (DSS (dimensionless)); higher = more sensitive (stronger growth inhibition / cytotoxicity); extreme values may be limits of the assay
CAF#2 = tested on: CAF#2 (primary prostate cancer-associated fibroblasts of iCAF-like type)
How it was run: (§1)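 Cells were added to 384-well plates already holding compounds at five doses over a 10,000-fold range: low-passage primary prostate cancer-associated fibroblasts, PF179T, WPMY-1, LNCaP and 22Rv1. Viability was measured 72 h later by CellTiter-Glo 2.0 luminescence and scaled to vehicle and positive-control wells. The drug sensitivity score, computed in BREEZE, is a partial area under the fitted logistic dose–response curve divided by the log of its upper asymptote, with higher scores meaning greater sensitivity.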

CAF#7 = tested on: CAF#7 (primary prostate cancer-associated fibroblasts of myCAF-like type)
How it was run: as §1

WPMY-1 = tested on: WPMY-1
How it was run: as §1

CAF#6 = tested on: CAF#6 (primary prostate cancer-associated fibroblasts of iCAF-like type)
How it was run: as §1

CAF#1 = tested on: CAF#1 (primary prostate cancer-associated fibroblasts of myCAF-like type)
How it was run: as §1

PF179T = tested on: PF179T
How it was run: as §1

LNCAP = tested on: LNCAP
How it was run: as §1

CAF#5 = tested on: CAF#5 (primary prostate cancer-associated fibroblasts of myCAF-like type)
How it was run: as §1

CAF#4 = tested on: CAF#4 (primary prostate cancer-associated fibroblasts of iCAF-like type)
How it was run: as §1

22Rv1 = tested on: 22Rv1
How it was run: as §1

CAF#3 = tested on: CAF#3 (primary prostate cancer-associated fibroblasts of myCAF-like type)
How it was run: as §1

## CN1C(=O)N[C@H](Cc2c[nH]c3c(Cl)cccc23)C1=O [Necrostatin 2] (tested concentration range 1-10000 nM)
CAF#2
  drug sensitivity score: 0
CAF#7
  drug sensitivity score: 0
WPMY-1
  drug sensitivity score: 0
CAF#6
  drug sensitivity score: 0
CAF#1
  drug sensitivity score: 0
PF179T
  drug sensitivity score: 0
LNCAP
  drug sensitivity score: 0
CAF#5
  drug sensitivity score: 0
CAF#4
  drug sensitivity score: 0
22Rv1
  drug sensitivity score: 0
CAF#3
  drug sensitivity score: 0

## CO[C@H]1C[C@@H]2CC[C@@H](C)[C@@](O)(O2)C(=O)C(=O)N2CCCC[C@H]2C(=O)O[C@H]([C@H](C)C[C@@H]2CC[C@@H](O)[C@H](OC)C2)CC(=O)[C@H](C)/C=C(\C)[C@@H](O)[C@@H](OC)C(=O)[C@H](C)C[C@H](C)/C=C/C=C/C=C/1C [Sirolimus] (tested concentration range 0-100 nM)
CAF#2
  drug sensitivity score: 6.8
CAF#7
  drug sensitivity score: 3.7
WPMY-1
  drug sensitivity score: 4
CAF#6
  drug sensitivity score: 3.4
CAF#1
  drug sensitivity score: 6.5
PF179T
  drug sensitivity score: 5.6
LNCAP
  drug sensitivity score: 2.5
CAF#5
  drug sensitivity score: 7.4
CAF#4
  drug sensitivity score: 4.9
22Rv1
  drug sensitivity score: 9.3
CAF#3
  drug sensitivity score: 2.2

## O=C(Nc1nc2cccc(-c3ccc(CN4CCS(=O)(=O)CC4)cc3)n2n1)C1CC1 [Filgotinib] (tested concentration range 1-10000 nM)
CAF#2
  drug sensitivity score: 2.3
CAF#7
  drug sensitivity score: 0.6
WPMY-1
  drug sensitivity score: 2.1
CAF#6
  drug sensitivity score: 0.1
CAF#1
  drug sensitivity score: 2.1
PF179T
  drug sensitivity score: 0.9
LNCAP
  drug sensitivity score: 3.8
CAF#5
  drug sensitivity score: 1.9
CAF#4
  drug sensitivity score: 0
22Rv1
  drug sensitivity score: 2.5
CAF#3
  drug sensitivity score: 1.7

## Nc1nc(NC2CC2)cc(-c2cccc(Cl)c2Cl)n1 [TH588] (tested concentration range 2.5-25000 nM)
CAF#2
  drug sensitivity score: 2.7
CAF#7
  drug sensitivity score: 0.5
WPMY-1
  drug sensitivity score: 7.9
CAF#6
  drug sensitivity score: 1.9
CAF#1
  drug sensitivity score: 2
PF179T
  drug sensitivity score: 2.8
LNCAP
  drug sensitivity score: 6.5
CAF#5
  drug sensitivity score: 1.7
CAF#4
  drug sensitivity score: 2.7
22Rv1
  drug sensitivity score: 4.2
CAF#3
  drug sensitivity score: 3

## CN1CCC(COc2cnc(-c3cccc(Cn4nc(-c5cccc(C#N)c5)ccc4=O)c3)nc2)CC1 [Tepotinib] (tested concentration range 0.1-1000 nM)
CAF#2
  drug sensitivity score: 3.4
CAF#7
  drug sensitivity score: 0
WPMY-1
  drug sensitivity score: 0.7
CAF#6
  drug sensitivity score: 0
CAF#1
  drug sensitivity score: 0
PF179T
  drug sensitivity score: 2.4
LNCAP
  drug sensitivity score: 0
CAF#5
  drug sensitivity score: 3
CAF#4
  drug sensitivity score: 0.5
22Rv1
  drug sensitivity score: 0
CAF#3
  drug sensitivity score: 0

## COc1cccc2c1c(O)c(C(=O)N(C)c1ccc(C(F)(F)F)cc1)c(=O)n2C [Tasquinimod] (tested concentration range 1-10000 nM)
CAF#2
  drug sensitivity score: 3.5
CAF#7
  drug sensitivity score: 5.8
WPMY-1
  drug sensitivity score: 0
CAF#6
  drug sensitivity score: 4.4
CAF#1
  drug sensitivity score: 0.3
PF179T
  drug sensitivity score: 0.4
LNCAP
  drug sensitivity score: 0
CAF#5
  drug sensitivity score: 3.4
CAF#4
  drug sensitivity score: 0
22Rv1
  drug sensitivity score: 0
CAF#3
  drug sensitivity score: 0

## CC[C@H](NC(=O)[C@H](C)NC)C(=O)N1C[C@@H](O)C[C@H]1Cc1c(-c2[nH]c3cc(F)ccc3c2C[C@@H]2C[C@H](O)CN2C(=O)[C@H](CC)NC(=O)[C@H](C)NC)[nH]c2cc(F)ccc12 [Birinapant] (tested concentration range 0.1-1000 nM)
CAF#2
  drug sensitivity score: 0
CAF#7
  drug sensitivity score: 0
WPMY-1
  drug sensitivity score: 0
CAF#6
  drug sensitivity score: 0.8
CAF#1
  drug sensitivity score: 0
PF179T
  drug sensitivity score: 0
LNCAP
  drug sensitivity score: 0.1
CAF#5
  drug sensitivity score: 0
CAF#4
  drug sensitivity score: 0
22Rv1
  drug sensitivity score: 0
CAF#3
  drug sensitivity score: 0

## CCCCNc1ncc(C(=O)NCc2ccc(-n3ccnc3)cc2)c(NC2CCC(O)CC2)n1 (configuration not stated) [UNC2881] (tested concentration range 0.2-2500 nM)
CAF#2
  drug sensitivity score: 0.1
CAF#7
  drug sensitivity score: 4.8
WPMY-1
  drug sensitivity score: 0
CAF#6
  drug sensitivity score: 2
CAF#1
  drug sensitivity score: 0.7
PF179T
  drug sensitivity score: 0
LNCAP
  drug sensitivity score: 1.5
CAF#5
  drug sensitivity score: 0.1
CAF#4
  drug sensitivity score: 0.7
22Rv1
  drug sensitivity score: 0
CAF#3
  drug sensitivity score: 2.6

## Cc1cc(-c2nc(-c3ccc(OC(F)(F)F)cc3)no2)nn1Cc1ccnc(N2CCN(C3CC3)CC2)c1 [BAY 87-2243] (tested concentration range 0.1-1000 nM)
CAF#2
  drug sensitivity score: 1.6
CAF#7
  drug sensitivity score: 0
WPMY-1
  drug sensitivity score: 23.2
CAF#6
  drug sensitivity score: 0
CAF#1
  drug sensitivity score: 0
PF179T
  drug sensitivity score: 26.4
LNCAP
  drug sensitivity score: 24.8
CAF#5
  drug sensitivity score: 0
CAF#4
  drug sensitivity score: 0
22Rv1
  drug sensitivity score: 19.8
CAF#3
  drug sensitivity score: 0.5

## C[C@@H](NC(=O)c1ncnc(N)c1Cl)c1ncc(C(=O)Nc2cc(C(F)(F)F)c(Cl)cn2)s1 [TAK-580] (tested concentration range 1-10000 nM)
CAF#2
  drug sensitivity score: 0
CAF#7
  drug sensitivity score: 0.3
WPMY-1
  drug sensitivity score: 0.5
CAF#6
  drug sensitivity score: 0
CAF#1
  drug sensitivity score: 0
PF179T
  drug sensitivity score: 0
LNCAP
  drug sensitivity score: 0.2
CAF#5
  drug sensitivity score: 0
CAF#4
  drug sensitivity score: 2.3
22Rv1
  drug sensitivity score: 0
CAF#3
  drug sensitivity score: 0.5

## CC(C)(C)Cn1c(N)nc2ccc(-c3[nH]c(C(C)(C)C)nc3-c3ccc(F)cc3)nc21 [Ralimetinib] (tested concentration range 1-10000 nM)
CAF#2
  drug sensitivity score: 1.9
CAF#7
  drug sensitivity score: 0
WPMY-1
  drug sensitivity score: 2.8
CAF#6
  drug sensitivity score: 0.1
CAF#1
  drug sensitivity score: 0.8
PF179T
  drug sensitivity score: 0
LNCAP
  drug sensitivity score: 11.2
CAF#5
  drug sensitivity score: 0
CAF#4
  drug sensitivity score: 0.1
22Rv1
  drug sensitivity score: 3.8
CAF#3
  drug sensitivity score: 2.1

## C=CC(=O)Nc1cc(Nc2nccc(-c3cn(C)c4ccccc34)n2)c(OC)cc1N(C)CCN(C)C [Osimertinib] (tested concentration range 0.2-2500 nM)
CAF#2
  drug sensitivity score: 5
CAF#7
  drug sensitivity score: 4.2
WPMY-1
  drug sensitivity score: 4.6
CAF#6
  drug sensitivity score: 3
CAF#1
  drug sensitivity score: 3.4
PF179T
  drug sensitivity score: 1.9
LNCAP
  drug sensitivity score: 6.4
CAF#5
  drug sensitivity score: 4.8
CAF#4
  drug sensitivity score: 3.7
22Rv1
  drug sensitivity score: 5.9
CAF#3
  drug sensitivity score: 5.4
